Entries after “also recorded” stand apart in the source; their conditions may differ.
Assays:
glucokinase [1] = target: T1, glucokinase (Rattus norvegicus, UniProt P17712); assay: Intracellular transfer of hepatic glucokinase with ketose (fluorescence antibody method, rat hepatocyte primary culture); assay type: cell-based
T1 construct: stained by a fluorescence antibody method using an anti-glucokinase antibody; endogenous in cells; host or cells: primary culture of hepatocytes from male Wistar rats
T1 sequence (P17712 1-465 isoform P17712-3): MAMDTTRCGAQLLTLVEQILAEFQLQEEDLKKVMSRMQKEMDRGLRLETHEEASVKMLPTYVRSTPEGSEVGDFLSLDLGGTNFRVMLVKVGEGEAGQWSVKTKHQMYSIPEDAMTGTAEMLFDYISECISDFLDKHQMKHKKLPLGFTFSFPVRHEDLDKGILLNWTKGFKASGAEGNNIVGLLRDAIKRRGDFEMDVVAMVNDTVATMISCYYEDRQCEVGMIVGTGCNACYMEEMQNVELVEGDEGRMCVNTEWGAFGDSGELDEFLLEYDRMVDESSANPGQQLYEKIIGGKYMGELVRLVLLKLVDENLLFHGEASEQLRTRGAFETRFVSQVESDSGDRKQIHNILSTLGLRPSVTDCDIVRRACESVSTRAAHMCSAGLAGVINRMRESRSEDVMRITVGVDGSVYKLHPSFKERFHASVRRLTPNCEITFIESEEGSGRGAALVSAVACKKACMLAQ
Procedure: Wistar rats (male, aged 5 to 8 weeks) were used. […] The hepatocytes were fixed with 4% para-formaldehyde, and stained by a fluorescence antibody method using an anti-glucokinase antibody. A fluorescent image obtained with a co-focus laser microscope was analyzed with the NIH Image to calculate the fluorescence intensity in the nucleus and the cytoplasm, which were defined as the glucokinase level in the nucleus and the cytoplasm. […] By the same method as described above, the glucokinase level in the intracellular nucleus and the cytoplasm was determined.

glucokinase [2] = assay: Intracellular transfer of hepatic glucokinase with hormones and various compounds (rat hepatocyte primary culture); assay type: cell-based; details: 25 mM D-glucose MEM
Procedure: Wistar rats (male, aged 5 to 8 weeks) were used. A primary culture of the rat hepatocyte was incubated for a certain period of time in a 25 mM D-glucose-containing MEM culture medium supplemented with hormones and various compounds. The hepatocytes were fixed with 4% para-formaldehyde, and stained by a fluorescence antibody method using an anti-glucokinase antibody. A fluorescent image obtained with a co-focus laser microscope was analyzed with the NIH Image to calculate the fluorescence intensity in the nucleus and the cytoplasm, which were defined as the glucokinase level in the nucleus and the cytoplasm.

hepatocytes = assay: Lactic acid generation in hepatocytes; assay type: cell-based, rat; details: each D-ketose added at 0.5 mM; MEM with 15 mM glucose; DMSO control
Procedure: […] As a control, DMSO was added.
(§1) Cultured hepatocytes were incubated in an MEM culture medium containing 5 mM or 25 mM D-glucose with an action of promoting glucokinase transfer from nucleus to cytoplasm. Glucokinase transfer from nucleus to cytoplasm, glycogen synthesis and lactic acid generation were increased. Via glucose, glucokinase transfer from nucleus to cytoplasm occurs, which raises cytoplasmic glucokinase activity to possibly promote the sugar metabolism in liver. […] (FIGS. 4, 6, 7 and 8)

glucokinase [3] = target: T1, glucokinase; assay: Hepatic glucokinase transfer from nucleus to cytoplasm after oral sugar given with D-glucose, Wistar rats (Example 3); assay type: in vivo; details: Wistar rats; 0.2 g/kg oral simultaneously with 2 g/kg D-glucose; 30 minutes later
Procedure: Male Wistar rats starved overnight were given 2 g/kg D-glucose orally. Simultaneously, 0.2 g/kg D-psicose, D-fructose or a mixture of D-psicose and D-fructose at 1:3 were given orally. Thirty minutes later, the rats were perfused and fixed with 4% para-formaldehyde under anesthesia, from which liver was immediately resected to prepare frozen sections. The distribution of glucokinase in the nucleus and the cytoplasm was analyzed with the fluorescence antibody method using an anti-glucokinase antibody. Simultaneously, blood was drawn out from the tail vein and the portal vein, to assay blood glucose levels.

Goto-Kakizaki rats [4] = assay: Blood glucose levels in tail vein and portal vein after sugar loading, Goto-Kakizaki rats; assay type: in vivo, rat
Procedure: (§2) The action of suppressing blood glucose increase with D-fructose at a low concentration was examined. To Goto-Kakizaki rats as a model animal of type 2 diabetes mellitus, D-glucose to 2 g/[…] or D-glucose to 2 g/l kg body weight+D-fructose to 0.2 g/1 kg body weight was administered orally, to examine the modification of glucokinase transfer from the nucleus to the cytoplasm in hepatocytes and the change of the blood glucose levels in the portal vein and the tail vein.
(§3) 2 g/kg D-glucose is orally given to male Goto-Kakizaki rats starved overnight. Simultaneously, 0.2 g/kg D-psicose was orally given. Thirty minutes later and 60 minutes later, the rats were perfused and fixed with 4% para-formaldehyde under anesthesia, from which liver was immediately resected to prepare frozen sections. The distribution of hepatic glucokinase in nucleus and cytoplasm was analyzed with the fluorescence antibody method using an anti-glucokinase antibody. Simultaneously, blood was drawn out from the tail vein and the portal vein, to assay blood glucose level and insulin concentration. Herein, liver is divided in the portal vein region and the central vein region of liver. It has been known that the activity of glucokinase in the central vein region is higher by 1.3 fold to 1.5 fold than the activity thereof in the portal vein region. Therefore, the glucokinase distributions in the nucleus and the cytoplasm in the central vein region and the portal vein region were analyzed.

glucokinase [5] = target: T1, glucokinase; assay: Hepatic glucokinase transfer from nucleus to cytoplasm after oral sugar alone, Wistar rats (Example 2); assay type: in vivo; details: Wistar rats starved overnight; 2 g/kg oral; 30 minutes later
Procedure: Thirty minutes later, the rats were subjected to perfusion and fixing with 4% para-formaldehyde under anesthesia, from which liver was immediately resected to prepare frozen sections. The distribution of glucokinase in nucleus and cytoplasm was analyzed with the fluorescence antibody method using an anti-glucokinase antibody. Simultaneously, blood was drawn out from the tail vein and the portal vein, to assay blood glucose levels.

glucokinase [6] = target: T1, glucokinase; assay: Hepatic glucokinase transfer from nucleus to cytoplasm in Goto-Kakizaki rats (type 2 diabetes model); assay type: in vivo
Procedure: as §2, §3

Goto-Kakizaki rats [7] = assay: Insulin concentrations in tail vein and portal vein under sugar loading, Goto-Kakizaki rats; assay type: in vivo, rat; details: 0.2 g/kg with 2 g/kg D-glucose oral, 30 minutes and 60 minutes, vs D-glucose alone
Procedure: as §3

[8] = tested on: primary culture of rat hepatocytes; assay: Glucose phosphorylation rate in cultured hepatocytes; assay type: cell-based
Procedure: Subsequently, the primary culture was incubated at various D-fructose concentrations in the presence of 25 mM D-glucose. […] The results agreed with the results reported so far.

glucokinase [9] = target: T1, glucokinase; assay: Glucokinase distribution in primary hepatocytes with D-glucose and D-fructose (fluorescence antibody method); assay type: cell-based; details: 0.5 mM D-fructose present vs absent; 5 mM or 25 mM D-glucose; 37° C. 30 minutes
Procedure: In the presence of 5 mM D-glucose, glucokinase mainly existed in the cell nucleus.
as §1

[10] = ketose added, MEM culture medium with 5 mM or 15 mM D-glucose
[11] = 0.2 g/kg with 2 g/kg D-glucose oral, 30 minutes and 60 minutes, vs D-glucose alone
[12] = 0.2 g/kg with 2 g/kg D-glucose oral, compared with D-glucose alone, portal and central vein regions

Compound: O=C(CO)[C@H](O)[C@@H](O)[C@@H](O)CO [L-fructose]
- glucokinase transfer from nucleus to cytoplasm (glucokinase [1]; ketose added at 20 mM or more, 5 mM or 15 mM D-glucose): glucokinase transfer from nucleus to cytoplasm was gradually reduced
- glucokinase transfer from nucleus to cytoplasm (glucokinase [1]; [10]): glucokinase transferred from nucleus to cytoplasm

Compound: O=C(CO)[C@@H](O)[C@@H](O)[C@H](O)CO [D-tagatose]
- glucokinase transfer from nucleus to cytoplasm (glucokinase [1]; ketose added up to 1 mM, any of the D-glucose concentrations): glucokinase transferred from nucleus to cytoplasm
- glucokinase transfer from nucleus to cytoplasm (glucokinase [1]; [10]): glucokinase transferred from nucleus to cytoplasm
- glucokinase transfer from nucleus to cytoplasm (glucokinase [1]; ketose concentration 10 mM or more): no change of the glucokinase transfer was observed; also recorded: no glucokinase transfer from nucleus to cytoplasm was observed

Compound: CCCC(=O)Nc1ncnc2c1ncn2[C@@H]1O[C@@H]2COP(=O)(O)O[C@H]2[C@H]1OC(=O)CCC [Bt2cAMP]
- cytoplasmic glucokinase (glucokinase [2]; hormone or compound alone): cytoplasmic glucokinase activity was reduced

Compound: CC(C)Cn1c(=O)n(C)c(=O)c2[nH]cnc21 [IBMX]
- cytoplasmic glucokinase (glucokinase [2]; hormone or compound alone): cytoplasmic glucokinase activity was reduced

Compound: O=C(CO)[C@H](O)[C@H](O)[C@@H](O)CO [L-tagatose]
- glucokinase transfer from nucleus to cytoplasm (glucokinase [1]; [10]): never influenced the glucokinase transfer

Compound: O=C(CO)[C@@H](O)[C@H](O)[C@@H](O)CO [L-sorbose]
- glucokinase transfer from nucleus to cytoplasm (glucokinase [1]; [10]): glucokinase transferred from nucleus to cytoplasm as the L-sorbose concentration was raised

Compound: O=C(CO)[C@H](O)[C@H](O)[C@H](O)CO [D-psicose]
- glucokinase transfer from nucleus to cytoplasm (glucokinase [1]; even at a high ketose concentration): exerted an action to promote glucokinase transfer from nucleus to cytoplasm
- glucokinase transfer from nucleus to cytoplasm (glucokinase [1]; [10]): glucokinase transferred from nucleus to cytoplasm
- lactic acid generation (hepatocytes): lactic acid generation was increased
- glucokinase transfer from the nucleus to the cytoplasm in hepatocytes (glucokinase [3]): glucokinase was transferred to the cytoplasm apparently but more weakly than with D-fructose
- glucose concentration in the portal vein (Goto-Kakizaki rats [4]; [11]): significantly lower values
- glucose concentration in the tail vein (Goto-Kakizaki rats [4]; [11]): significantly lower values
- glucokinase transfer from the nucleus to the cytoplasm in hepatocytes (glucokinase [5]): glucokinase transfer from the nucleus to the cytoplasm could be observed
- cytoplasmic glucokinase fluorescence (liver) (glucokinase [6]; [12]): increased the cytoplasmic fluorescence
- nuclear glucokinase fluorescence (liver) (glucokinase [6]; [12]): significantly reduced the nuclear fluorescence
- cytoplasmic glucokinase level (fluorescence intensity analysis) (glucokinase [6]; simultaneous administration with D-glucose vs D-glucose alone, central vein and portal vein regions): further increased the cytoplasmic glucokinase level
- insulin concentration in the portal vein (Goto-Kakizaki rats [7]): significantly lower values
- insulin concentration in the tail vein (Goto-Kakizaki rats [7]): significantly lower values

Compound: glucagon: hormone that transfers glucokinase from cytoplasm to nucleus
- cytoplasmic glucokinase (glucokinase [2]; hormone or compound alone): cytoplasmic glucokinase activity was reduced

Compound: insulin: hormone that transfers glucokinase from nucleus to cytoplasm
- cytoplasmic glucokinase (glucokinase [2]; hormone or compound alone): increase of cytoplasmic glucokinase

Compound: O=C(CO)[C@H](O)[C@@H](O)[C@H](O)CO [D-sorbose]
- glucokinase transfer from nucleus to cytoplasm (glucokinase [1]; at any of the ketose concentrations): did not influence glucokinase transfer; also recorded: hardly influenced such glucokinase transfer

Compound: COc1cccc(-c2cc(=O)c3ccccc3o2)c1N [PD-98059]
- cytoplasmic glucokinase (glucokinase [2]; compound in the presence of insulin): such change could not be observed

Compound: O=C(CO)[C@@H](O)[C@H](O)[C@H](O)CO [D-fructose]
- glucokinase transfer from nucleus to cytoplasm (glucokinase [1]; ketose added at 1 mM or more, 5 mM or 15 mM D-glucose): glucokinase transfer from nucleus to cytoplasm was gradually reduced
- glucokinase transfer from nucleus to cytoplasm (glucokinase [1]; [10]): glucokinase transferred from nucleus to cytoplasm
- lactic acid generation (hepatocytes): lactic acid generation was increased
- glucokinase transfer from the nucleus to the cytoplasm in hepatocytes (glucokinase [3]): glucokinase was mostly transferred to the cytoplasm
- glucose phosphorylation ([8]; 0.5 mM D-fructose present vs absent, various glucose concentrations): enhanced glucose phosphorylation in the hepatocytes
- glucose phosphorylation ([8]; above 0.5 mM D-fructose, 25 mM D-glucose): glucose phosphorylation was reduced
- glucose phosphorylation ([8]; up to 0.5 mM D-fructose, 25 mM D-glucose): glucose phosphorylation was enhanced as the D-fructose concentration was raised
- glucokinase transfer from the nucleus to the cytoplasm (glucokinase [9]): the glucokinase transfer from the nucleus to the cytoplasm increased
- blood glucose level in the portal vein (Goto-Kakizaki rats [4]; additional supplement of D-fructose compared with D-glucose alone): suppressed significantly
- blood glucose level in the portal vein (Goto-Kakizaki rats [4]; effect of D-fructose loading added to D-glucose): No difference was observed
- glucokinase transfer from the nucleus to the cytoplasm in hepatocytes (glucokinase [5]): a higher level of the transfer was observed than with D-psicose
- glucokinase transfer from the nucleus to the cytoplasm in hepatocytes (glucokinase [6]; D-glucose 2 g/kg + D-fructose 0.2 g/kg oral, compared with D-glucose alone): significantly increased

Compound: O=C(CO)[C@@H](O)[C@@H](O)[C@@H](O)CO [L-psicose]
- glucokinase transfer from nucleus to cytoplasm (glucokinase [1]; [10]): glucokinase transferred from nucleus to cytoplasm

Compound: CCCCCCOC(=O)[C@]1(O)C[C@@H]2O[C@@]1(C)n1c3ccccc3c3c4c(c5c6ccccc6n2c5c31)C(=O)NC4 [KT-5720]
- cytoplasmic glucokinase (glucokinase [2]; compound in the presence of glucagon): Almost no reduction of cytoplasmic glucokinase with glucagon was observed any more

— patent US20140336267A1, “UTILIZATION OF THE FUNCTION OF RARE SUGAR AS PROMOTER FOR THE MIGRATION OF GLUCOKINASE FROM NUCLEUS TO CYTOPLASM” (NATIONAL UNIVERSITY CORPORATION KAGAWA UNIVERSITY, priority 2006, published 2014)
